Two compounds from article PMC4977564, “Inhibition of Mycobacterium tuberculosis dihydrodipicolinate synthase by alpha-ketopimelic acid and its other structural analogues” (Scientific Reports, 2016) can be followed below.

The target in series [1] is T1, Mtb-rDapA (Mycobacterium tuberculosis, UniProt P9WP25). Put plainly: Fluorescence-based thermal shift assay. As to conditions: ligand 0.2 mM to 1 mM; Mtb-rDapA Tm 84.8 °C. Format: binding. From the text: The fluorescence based thermal shift assay for screening of identified ligands, which is based on the principle that ligand binding alters thermal stability of protein. This method allows us to monitor the protein denaturation upon heating using fluorescence based dye (Sypro orange, Sigma, USA), which binds to hydrophobic part of proteins during protein denaturation and emits fluorescence at 580 nm[43]. We can monitor the changes in fluorescence and generate a thermal melting curve using real time PCR. The mid-point of the melting curve designated as the melting temperature Tm corresponding to 50% of protein being denatured.
The thermal shift assay was carried out in the LightCycler^R LC480 qPCR machine using 384 well PCR plates (Roche, USA). An assay mixture of 20 μl contained 20 μM Mtb-rDapA, 15 X Sypro Orange (Sigma), 50 mM sodium phosphate buffer pH 7.4 and ligand in the range 0.2 mM to 1 mM. The ligands and Mtb-rDapA were diluted in sodium phosphate buffer. The PCR plates were sealed with optical seal, mixed well and centrifuged after the assay mixture was added. […] The fluorescence intensity was measured by excitation at 465 nm and emission at 580 nm. Curve fitting, melting temperature calculation and report generation on the raw Fluorescence based thermal shift assay (FTS) data were performed using pre-installed analysis software provided with the instrument (Roche, USA)[44].

The target of series [2] is T2, recombinant Mtb-DapA (Mtb-rDapA) (Mycobacterium tuberculosis, UniProt P9WP25).
The target of series [3] is T1, Mtb-rDapA. Put plainly: LC-MS/MRM quantitation of THDP product of the coupled assay. It is filed as biochemical. The following applies: MRM, 1 mM KPA (saturating concentration). As for the experimental part:
The activity of Mtb-rDapA and Mtb-rDapB in catalyzing formation of THDP was confirmed by LC/MS analysis. A reaction mixture contained 1 μg of Mtb-rDapA, 30 μg of Mtb-rDapB, 10 mM pyruvate, 1 mM ASA, 0.16 mM NADPH and 50 mM sodium phosphate buffer pH 7.4 run at 37 °C for 5 min using UV-Vis spectrophotometer for THDP formation. Mtb-rDapA and Mtb-rDapB were then inactivated at 55 °C for 5 min to preserve integrity of reaction products and reaction mixture passed through 10 kDa cutoff filter unit (Millipore, USA) to filter the proteins and centrifuged at 6800 × g. The flow-through containing reaction products was used in LC/MS analysis. In order to observe the effect of inhibitor on THDP formation we added α-KPA in the assay mixture. The sample was subjected to analysis on a LC/ESI-MS (Quattro Micro API, Waters) coupled to a UPLC inlet. The flow through was loaded onto an Acquity UPLC BEH shield RP18, […], 2.1 100 mm column comprising a mobile phase of buffer A (water, 0.1% formic acid) and buffer B (acetonitrile, 0.1% formic acid) at a flow rate of 0.2 ml min^−1. […] Quantitative analysis of THDP formation was carried out by assessment of peak area in multiple reactions monitoring (MRM) mode with precursor ion 172.3 of THDP and corresponding daughter ions 125.6 and 107.5 by using above mentioned LC-MS/MS parameters.

Series [4] addresses T1, Mtb-rDapA. In words: Size exclusion chromatography of Mtb-rDapA oligomerization. The protocol:
Prior to gel filtration, the pre-packed Superdex 200 10/300 column (GE Healthcare) was pre-equilibrated with 50 mM Tris HCl pH 7.5, 150 mM NaCl and 10% glycerol. 25 μM Mtb-rDapA in 25 mM Tris/150 mM NaCl buffer was loaded in 500 μl volume. Multiple fractions of 1 ml volume were collected and each fraction runs on 12% SDS-PAGE gel electrophoresis. The ligand α-KPA in 1:5, 1:10 and 1:50 molar ratio of Mtb-rDapA was incubated with Mtb-rDapA and subjected to run as above. The chromatograms were collected by measuring absorption at 280 nm as a function of buffer volume at a flow rate of 0.3 ml/min. The column was calibrated by passing Apoferritin eluted at 10.5 ml, β-Amylase eluted at 12.5 ml, Alcohol dehydrogenase eluted at 13 ml, BSA eluted at 14.5 ml, carbonic anhydrase eluted at 16.9 ml, and cytochrome C eluted at 19 ml followed by a standard curve generation.
(In general: SEC sorts molecules by how far they enter the pores of the column.)

Series [5] concerns the target T2, recombinant Mtb-DapA (Mtb-rDapA). Put plainly: biochemical.
In a further series the test system is CC(=O)C(=O)O. In words: purified protein, by the assay type. As to conditions: pH 7.4; 37.0 °C.

T2 sequence (P9WP25 whole entry, looked up): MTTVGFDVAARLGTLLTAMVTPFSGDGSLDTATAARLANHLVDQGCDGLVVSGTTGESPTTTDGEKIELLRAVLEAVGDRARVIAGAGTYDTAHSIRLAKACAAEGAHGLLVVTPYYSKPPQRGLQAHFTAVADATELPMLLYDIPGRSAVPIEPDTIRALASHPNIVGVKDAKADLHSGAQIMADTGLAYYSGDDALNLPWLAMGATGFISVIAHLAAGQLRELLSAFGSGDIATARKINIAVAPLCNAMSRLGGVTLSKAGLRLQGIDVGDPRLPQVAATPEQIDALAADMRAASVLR
T1 sequence (P9WP25 whole entry, looked up): as above

As for `O=C(O)CCCCC(=O)C(=O)O` [compound 1, 2-oxoheptanedioic acid], the “Tm increase of Mtb-rDapA upon binding” value at Mtb-rDapA [1] was determined as 1 °C. In series [2], the “fold increase of IC50, pre-incubation with pyruvate vs pre-incubation with α-KPA” value is given as about 8 fold. Further, the “reduction of THDP product peak (SRM peak area / relative abundance)” value at Mtb-rDapA [3] (listed as KPA) was “up to 50%”; on Mtb-rDapA [3] (listed as α-KPA), 50%. The “effect on Mtb-rDapA oligomerization” value is on record as “the oligomerization was not affected” at Mtb-rDapA [4] (ratios of 1:5 and 1:10 of Mtb-rDapA to α-KPA); “did not obtain any peak corresponding to either the tetramer or the octamer” at Mtb-rDapA [4] (α-KPA in 50-fold molar excess, 37 °C, 5 min). Moreover, the Ki in series [5] amounted to 32.5 µM. Moreover, the IC50 was determined as 160 µM in series [5] (IC50); 21 µM in series [5] (IC50, pyruvate 500 μM, ASA 400 μM); 21 µM in series [5] (IC50 of α-KPA, pyruvate 0.17 mM, ASA 400 μM, 10 min from start); 21 µM in series [5] (IC50 of α-KPA, pyruvate 0.17 mM, ASA 400 μM, 20 min from start); 21 µM in series [5] (IC50 of α-KPA, pyruvate 0.17 mM, ASA 400 μM, 30 min from start); 31 µM in series [5] (IC50 of α-KPA, pyruvate 0.17 mM, ASA 400 μM, 40 min from start). For the same compound, the 50% inhibitory concentration (IC50) in series [5] (IC50 of α-KPA, pyruvate 0.17 mM, ASA 400 μM, 50 min from start) was 41 µM; in series [5] (IC50 of α-KPA, pyruvate 0.17 mM, ASA 400 μM, 60 min from start) it was 51 µM; in series [5] (IC50 of α-KPA, pyruvate 0.3 mM, ASA 400 μM, 10 min from start), 21 µM; in series [5] (IC50 of α-KPA, pyruvate 0.3 mM, ASA 400 μM, 20 min from start), 21 µM; in series [5] (IC50 of α-KPA, pyruvate 0.3 mM, ASA 400 μM, 30 min from start), 21 µM; in series [5] (IC50 of α-KPA, pyruvate 0.3 mM, ASA 400 μM, 40 min from start), 31 µM. The IC50 in series [5] (IC50 of α-KPA, pyruvate 0.3 mM, ASA 400 μM, 50 min from start) is 41 µM; in series [5] (IC50 of α-KPA, pyruvate 0.3 mM, ASA 400 μM, 60 min from start), 51 µM; in series [5] (IC50 of α-KPA, pyruvate 1 mM, ASA 400 μM, 10 min from start), 21 µM; in series [5] (IC50 of α-KPA, pyruvate 1 mM, ASA 400 μM, 20 min from start), 21 µM; in series [5] (IC50 of α-KPA, pyruvate 1 mM, ASA 400 μM, 30 min from start), 21 µM; in series [5] (IC50 of α-KPA, pyruvate 1 mM, ASA 400 μM, 40 min from start) it was 31 µM. Besides, the IC50 in series [5] (IC50 of α-KPA, pyruvate 1 mM, ASA 400 μM, 50 min from start) was 41 µM; in series [5] (IC50 of α-KPA, pyruvate 1 mM, ASA 400 μM, 60 min from start) it was 51 µM; in series [5] (IC50 of α-KPA, pyruvate 2 mM, ASA 400 μM, 10 min from start) it was 61 µM; in series [5] (IC50 of α-KPA, pyruvate 2 mM, ASA 400 μM, 20 min from start), 61 µM; in series [5] (IC50 of α-KPA, pyruvate 2 mM, ASA 400 μM, 30 min from start) it was 71 µM; in series [5] (IC50 of α-KPA, pyruvate 2 mM, ASA 400 μM, 40 min from start) it was 81 µM. Also, the IC50 in series [5] (IC50 of α-KPA, pyruvate 2 mM, ASA 400 μM, 50 min from start) is 91 µM; in series [5] (IC50 of α-KPA, pyruvate 2 mM, ASA 400 μM, 60 min from start) it was 101 µM. Also, the Emax in series [5] (read-out: Maximal Inhibition (%)) was found to be 88%. Besides, in series [5] (read-out: maximal inhibition), the inhibition at 400 µM was found to be 77%.
Consider “recombinant Mtb-DapA (Mtb-rDapA) (Mycobacterium tuberculosis H37Rv)”, for which, in the series with CC(=O)C(=O)O, the Km is 148.8 µM.

What is called Ki is a measure of affinity in units of concentration, obtained from inhibition or displacement. By IC50 is commonly meant the point on the concentration scale where inhibition reaches its midpoint. Broadly, the inhibition is the percentage by which the read-out fell short of the control. The Km is the substrate concentration at which the rate is half of its maximum.
